Reference: patent US9884063B2, “Amido-substituted azole compounds” (Bayer Pharma Aktiengesellschaft, priority 2014, dated 2018)

Assays:
TNKS2 = target: T1, TNKS2 (Homo sapiens, UniProt Q9H2K2); assay: Modified TNKS2 Assay 3 (BPS kit #80578, biotin-NAD+, 96 well); assay type: biochemical; conditions: human TNKS2, BPS kit #80578, 96 well
T1 sequence (Q9H2K2 1-1166): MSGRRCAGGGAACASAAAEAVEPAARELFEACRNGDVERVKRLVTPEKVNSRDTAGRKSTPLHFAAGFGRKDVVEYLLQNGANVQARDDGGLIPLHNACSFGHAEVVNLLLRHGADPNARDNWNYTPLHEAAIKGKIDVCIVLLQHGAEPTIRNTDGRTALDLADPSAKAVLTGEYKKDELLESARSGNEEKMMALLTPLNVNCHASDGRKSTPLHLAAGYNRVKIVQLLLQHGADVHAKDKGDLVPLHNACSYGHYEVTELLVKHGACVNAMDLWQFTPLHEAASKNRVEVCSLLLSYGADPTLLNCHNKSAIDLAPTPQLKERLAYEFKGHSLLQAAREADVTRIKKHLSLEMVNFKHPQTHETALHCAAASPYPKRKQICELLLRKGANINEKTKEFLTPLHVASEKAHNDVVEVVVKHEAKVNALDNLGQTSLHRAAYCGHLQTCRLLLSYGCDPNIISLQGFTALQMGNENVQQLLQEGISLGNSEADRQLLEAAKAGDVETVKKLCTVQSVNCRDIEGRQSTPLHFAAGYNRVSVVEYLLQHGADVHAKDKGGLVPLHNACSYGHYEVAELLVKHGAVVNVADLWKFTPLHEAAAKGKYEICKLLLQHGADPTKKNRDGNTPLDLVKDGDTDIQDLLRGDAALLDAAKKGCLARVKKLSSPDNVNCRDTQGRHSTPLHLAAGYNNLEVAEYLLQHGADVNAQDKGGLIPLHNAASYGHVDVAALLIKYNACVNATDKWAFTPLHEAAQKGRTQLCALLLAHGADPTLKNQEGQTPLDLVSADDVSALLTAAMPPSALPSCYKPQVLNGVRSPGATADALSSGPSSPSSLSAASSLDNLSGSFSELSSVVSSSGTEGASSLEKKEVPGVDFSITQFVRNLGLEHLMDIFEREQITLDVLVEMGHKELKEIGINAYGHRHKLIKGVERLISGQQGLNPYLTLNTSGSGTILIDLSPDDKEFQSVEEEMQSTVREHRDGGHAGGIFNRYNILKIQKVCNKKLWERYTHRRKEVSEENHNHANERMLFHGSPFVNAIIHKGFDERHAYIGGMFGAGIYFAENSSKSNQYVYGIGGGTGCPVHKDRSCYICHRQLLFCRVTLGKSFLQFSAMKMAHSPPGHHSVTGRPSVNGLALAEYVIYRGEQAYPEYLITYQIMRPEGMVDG
Method in brief: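 Commercial kit assay measuring TNKS2-catalysed incorporation of biotin-labelled NAD+ into a protein substrate, detected by streptavidin-HRP chemiluminescence. Run per manufacturer's protocol; IC50 is the concentration halving the normalised signal.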

[1] = system: wildtype Wnt signaling cascade; assay: HEK293 TOP Assay (Super TopFlash luciferase reporter, Wnt-3a stimulated); assay type: cell-based
Method in brief: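 HEK293 cells stably carrying Super TopFlash (TOP) or FOP reporter, stimulated with recombinant human Wnt-3a (2500–5 ng/ml, two-fold steps). Both lines incubated in parallel with compound from 50 μM to 15 nM (3.16-fold) in CAFTY buffer pH 7.4 with 2 mM Ca2+ and 0.01% BSA; selectivity judged TOP vs FOP.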

[2] = HEK293 TOP reporter cell line, Wnt-3a at EC50, 16 hours incubation, compound dilution series 50 μM to 15 nM
[3] = Homo sapiens, HEK293, 16 h, HEK293 TOP reporter cell line, Wnt-3a at EC50, 16 hours incubation, compound dilution series 50 μM to 15 nM
[4] = Homo sapiens, HEK293, 16 h, HEK293 TOP reporter cells, Wnt3a at EC50, 16 hours, luciferase

Row | Compound | IC50 (TNKS2) [nM] | IC50 [1, 2] [nM] | IC50 [1, 3] [nM] | IC50 [1, 4] [nM]
1 | CC(CN1CCOCC1)NC(=O)c1[nH]cnc1C(=O)Nc1ccc(NC(=O)c2ccc(F)cc2Cl)cc1 (single isomer, unassigned; enantiomer 1) [Example 269, N^4-{4-[(2-chloro-4-fluorobenzoyl)amino]phenyl}-N^5-[1-(morpholin-4-yl)propan-2-yl]-1H-imidazole-4,5-dicarboxamide (enantiomer 1)] | 130 | 440 |  | 
2 | CC(CN1CCOCC1)NC(=O)c1[nH]cnc1C(=O)Nc1ccc(NC(=O)c2ccc(F)cc2)cc1 (single isomer, unassigned; enantiomer 1) [Example 295, N^4-{4-[(4-fluorobenzoyl)amino]phenyl}-N^5-[1-(morpholin-4-yl)propan-2-yl]-1H-imidazole-4,5-dicarboxamide (enantiomer 1)] | 190 | 690 |  | 
3 | CC(CN1CCOCC1)NC(=O)c1[nH]cnc1C(=O)Nc1ccc(NC(=O)c2ccc(F)cc2)cc1 (single isomer, unassigned; enantiomer 2) [Example 296, N^4-{4-[(4-fluorobenzoyl)amino]phenyl}-N^5-[1-(morpholin-4-yl)propan-2-yl]-1H-imidazole-4,5-dicarboxamide (enantiomer 2)] | > 500 | 6450 |  | 
4 | COC(=O)c1nc[nH]c1C(=O)Nc1ccc(NC(=O)c2ccc(F)cc2Cl)cc1 [Example 13, Methyl 5-({4-[(2-chloro-4-fluorobenzoyl)amino]phenyl}carbamoyl)-1H-imidazole-4-carboxylate] | 20 |  | 130 | 130
5 | CN(C)CCNC(=O)c1ncoc1C(=O)Nc1ccc(NC(=O)c2ccc(F)cc2Cl)cc1 [Example 31, N^5-{4-[(2-chloro-4-fluorobenzoyl)amino]phenyl}-N^4-[2-(dimethylamino)ethyl]-1,3-oxazole-4,5-dicarboxamide] | 130 |  | 1600 | 1600
6 | O=C(Nc1ccc(NC(=O)c2[nH]cnc2C(=O)NCCN2CCCCC2)cc1)c1ccc(F)cc1 [Example 33, N^4-{4-[(4-fluorobenzoyl)amino]phenyl}-N^5-[2-(piperidin-1-yl)ethyl]-1H-imidazole-4,5-dicarboxamide] | > 500 |  | 450 | 630
7 | CNC(=O)c1nc[nH]c1C(=O)Nc1ccc(NC(=O)c2c(C)cc(C)cc2C)cc1 [Example 35, N^5-{4-[(mesitylcarbonyl)amino]phenyl}-N^4-methyl-1H-imidazole-4,5-dicarboxamide] | > 500 |  | 760 | 760
8 | CNC(=O)c1nc[nH]c1C(=O)Nc1ccc(NC(=O)c2ccccc2Br)cc1 [Example 37, N^5-{4-[(2-bromobenzoyl)amino]phenyl}-N^4-methyl-1H-imidazole-4,5-dicarboxamide] | 260 |  | 330 | 330
9 | O=C(Nc1ccc(NC(=O)c2[nH]cnc2C(=O)N2CC(F)C2)cc1)c1ccc(F)cc1Cl [Example 41, N-{4-[(2-chloro-4-fluorobenzoyl)amino]phenyl}-4-[(3-fluoroazetidin-1-yl)carbonyl]-1H-imidazole-5-carboxamide] | 70 |  | 90 | 
10 | O=C(Nc1ccc(NC(=O)c2[nH]cnc2C(=O)NC2CC2)cc1)c1ccc(F)cc1Cl [Example 45, N^5-{4-[(2-chloro-4-fluorobenzoyl)amino]phenyl}-N^4-cyclopropyl-1H-imidazole-4,5-dicarboxamide] | 40 |  | 190 | 
11 | O=C(Nc1ccc(NC(=O)c2[nH]cnc2C(=O)N2CC(F)C2)cc1)c1cc(F)c(F)cc1Cl [Example 47, N-{4-[(2-chloro-4,5-difluorobenzoyl)amino]phenyl}-4-[(3-fluoroazetidin-1-yl)carbonyl]-1H-imidazole-5-carboxamide] | > 500 |  | 340 | 
12 | O=C(Nc1ccc(NC(=O)c2[nH]cnc2C(=O)NCCC2CC2)cc1)c1cc(F)c(F)cc1Cl [Example 49, N^5-{4-[(2-chloro-4,5-difluorobenzoyl)amino]phenyl}-N^4-(2-cyclopropylethyl)-1H-imidazole-4,5-dicarboxamide] | > 500 |  | 350 | 
13 | CN(C)CCNC(=O)c1nc[nH]c1C(=O)Nc1ccc(NC(=O)c2ccc(S(C)(=O)=O)cc2Cl)cc1 [Example 54, N^5-(4-{[2-chloro-4-(methylsulfonyl)benzoyl]amino}phenyl)-N^4-[2-(dimethylamino)ethyl]-1H-imidazole-4,5-dicarboxamide] | 6 |  | 1450 | 
14 | COC(=O)c1nc[nH]c1C(=O)Nc1ccc(NC(=O)c2ccccc2Cl)c(C)c1 [Example 86, methyl-5-({4-[(2-chlorobenzoyl)amino]-3-methylphenyl}carbamoyl)-1H-imidazole-4-carboxylate] |  |  | 420 | 
15 | Cc1cc(NC(=O)c2[nH]cnc2C(=O)NCCN2CCCCC2)ccc1NC(=O)c1ccccc1Cl [Example 89, N^5-{4-[(2-chlorobenzoyl)amino]-3-methylphenyl}-N^4-[2-(piperidin-1-yl)ethyl]-1H-imidazole-4,5-dicarboxamide] |  |  | 600 | 
16 | COC(=O)c1nc[nH]c1C(=O)Nc1ccc(NC(=O)c2ccc(F)cc2Cl)c(OC)c1 [Example 94, methyl 5-({4-[(2-chloro-4-fluorobenzoyl)amino]-3-methoxyphenyl}carbamoyl)-1H-imidazole-4-carboxylate] |  |  | 830 | 
17 | COc1cc(NC(=O)c2[nH]cnc2C(=O)NCCN(C)C)ccc1NC(=O)c1ccc(F)cc1Cl [Example 96, N^5-{4-[(2-chloro-4-fluorobenzoyl)amino]-3-methoxyphenyl}-N^4-[2-(dimethylamino)ethyl]-1H-imidazole-4,5-dicarboxamide] |  |  | 310 | 
18 | COC(=O)c1nc[nH]c1C(=O)Nc1ccc(NC(=O)c2ccccc2Cl)c(OC)c1 [Example 98, methyl 5-({4-[(2-chlorobenzoyl)amino]-3-methoxyphenyl}carbamoyl)-1H-imidazole-4-carboxylate] |  |  | 1150 | 
19 | COc1cc(NC(=O)c2[nH]cnc2C(=O)NCCN(C)C)ccc1NC(=O)c1ccccc1Cl [Example 100, N^5-{4-[(2-chlorobenzoyl)amino]-3-methoxyphenyl}-N^4-[2-(dimethylamino)ethyl]-1H-imidazole-4,5-dicarboxamide] |  |  | 790 | 
20 | COC(=O)c1nc[nH]c1C(=O)Nc1ccc(NC(=O)c2ccc(F)cc2)c(OC)c1 [Example 102, methyl 5-({4-[(4-fluorobenzoyl)amino]-3-methoxyphenyl}carbamoyl)-1H-imidazole-4-carboxylate] |  |  | 50000 | 
21 | CNC(=O)c1[nH]c(C(C)C)nc1C(=O)Nc1ccc(NC(=O)c2ccc(F)cc2Cl)cc1 [Example 106, N^4-{4-[(2-chloro-4-fluorobenzoyl)amino]phenyl}-2-isopropyl-N^5-methyl-1H-imidazole-4,5-dicarboxamide] |  |  | 27000 | 
22 | CNC(=O)c1nc[nH]c1C(=O)Nc1ccc(NC(=O)c2ccccc2Cl)nc1 [Example 112, N^5-{6-[(2-chlorobenzoyl)amino]pyridin-3-yl}-N^4-methyl-1H-imidazole-4,5-dicarboxamide] |  |  | 2550 | 
23 | CN(C)CCNC(=O)c1nc[nH]c1C(=O)Nc1ccc(NC(=O)c2ccccc2Cl)nc1 [Example 113, N^5-{6-[(2-chlorobenzoyl)amino]pyridin-3-yl}-N^4-[2-(dimethylamino)ethyl]-1H-imidazole-4,5-dicarboxamide] |  |  | 460 | 
